For assay [1], the target named is Serine/threonine-protein kinase N3 (Homo sapiens) (UniProt Q6P5Z2). Kind of assay: Inhibition of PKN3 (unknown origin) at 10 uM after 120 mins P33 radiolabeled kinase activity assay.
For assay [2], the target named is Insulin receptor-related protein (Homo sapiens) (UniProt P14616). Nature of the assay: Inhibition of IRR (unknown origin) at 10 uM after 120 mins P33 radiolabeled kinase activity assay.
For assay [3], the target named is Calcium/calmodulin-dependent protein kinase type II subunit delta (Homo sapiens) (UniProt Q13557). Kind of assay: Inhibition of CAMK2delta (unknown origin) at 10 uM after 120 mins P33 radiolabeled kinase activity assay.
Chain of Calcium/calmodulin-dependent protein kinase type II subunit delta (Homo sapiens) (Q13557 whole entry): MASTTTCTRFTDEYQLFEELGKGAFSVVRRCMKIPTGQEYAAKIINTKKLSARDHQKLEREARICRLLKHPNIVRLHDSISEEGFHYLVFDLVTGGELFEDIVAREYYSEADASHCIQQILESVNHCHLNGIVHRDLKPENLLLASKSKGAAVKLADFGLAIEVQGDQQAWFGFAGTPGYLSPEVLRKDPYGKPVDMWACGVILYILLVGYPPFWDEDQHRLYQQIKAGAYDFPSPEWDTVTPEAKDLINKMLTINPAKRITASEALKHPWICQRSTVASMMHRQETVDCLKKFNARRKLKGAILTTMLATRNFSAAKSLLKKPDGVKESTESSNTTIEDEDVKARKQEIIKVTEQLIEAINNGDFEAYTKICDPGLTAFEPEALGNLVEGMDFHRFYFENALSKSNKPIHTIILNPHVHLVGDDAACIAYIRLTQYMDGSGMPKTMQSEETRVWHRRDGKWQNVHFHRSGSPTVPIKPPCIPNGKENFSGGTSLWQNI
The target of assay [4] is Receptor-interacting serine/threonine-protein kinase 2 (Homo sapiens, UniProt O43353). Nature of the assay: Inhibition of full-length FLAG-6His-TEV tagged human RIP2 expressed in Sf9 cells assessed as residence time by fluorescent polarization assay.
Chain of Receptor-interacting serine/threonine-protein kinase 2 (O43353 whole entry): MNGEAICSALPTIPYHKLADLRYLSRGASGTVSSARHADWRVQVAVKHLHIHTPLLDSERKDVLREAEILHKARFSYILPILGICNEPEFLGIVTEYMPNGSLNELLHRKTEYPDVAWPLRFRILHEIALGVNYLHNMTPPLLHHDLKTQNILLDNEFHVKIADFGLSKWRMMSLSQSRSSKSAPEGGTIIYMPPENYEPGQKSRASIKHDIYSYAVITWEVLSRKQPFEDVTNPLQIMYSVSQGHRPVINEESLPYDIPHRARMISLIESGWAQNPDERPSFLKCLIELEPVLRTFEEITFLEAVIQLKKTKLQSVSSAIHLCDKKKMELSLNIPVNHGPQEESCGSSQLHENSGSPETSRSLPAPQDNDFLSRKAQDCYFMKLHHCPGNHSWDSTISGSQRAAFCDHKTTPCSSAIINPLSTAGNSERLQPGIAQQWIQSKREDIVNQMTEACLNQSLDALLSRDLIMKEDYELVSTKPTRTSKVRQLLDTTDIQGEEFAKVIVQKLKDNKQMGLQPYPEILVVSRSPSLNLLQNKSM
Assay [5] has as its target Focal adhesion kinase 1 (Homo sapiens) (UniProt Q05397). Nature of the assay: Inhibition of FAK (unknown origin) at 10 uM after 120 mins P33 radiolabeled kinase activity assay.
Assay [6] has as its target Mitogen-activated protein kinase 8 (Homo sapiens) (UniProt P45983). Kind of assay: Inhibition of JNK1 (unknown origin) at 10 uM after 120 mins P33 radiolabeled kinase activity assay.
In assay [7] the target is T1, Dual specificity mitogen-activated protein kinase kinase 7 (Homo sapiens) (UniProt O14733).
T1 sequence (whole entry): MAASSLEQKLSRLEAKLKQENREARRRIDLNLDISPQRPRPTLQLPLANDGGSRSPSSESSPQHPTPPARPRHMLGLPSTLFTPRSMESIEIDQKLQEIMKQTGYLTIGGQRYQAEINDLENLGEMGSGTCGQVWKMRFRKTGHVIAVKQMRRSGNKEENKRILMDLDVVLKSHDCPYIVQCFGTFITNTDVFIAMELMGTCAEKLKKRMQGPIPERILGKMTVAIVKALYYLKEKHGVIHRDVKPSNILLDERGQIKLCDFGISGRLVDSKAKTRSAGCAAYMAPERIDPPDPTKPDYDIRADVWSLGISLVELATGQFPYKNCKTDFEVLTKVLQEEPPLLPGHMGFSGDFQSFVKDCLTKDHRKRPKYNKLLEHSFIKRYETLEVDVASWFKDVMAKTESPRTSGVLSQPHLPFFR
Nature of the assay: Inhibition of MKK7 (unknown origin) at 10 uM after 120 mins P33 radiolabeled kinase activity assay.

Assay [8] has as its target Insulin-like growth factor 1 receptor (Homo sapiens) (UniProt P08069). Nature of the assay: Inhibition of IGF1R (unknown origin) at 10 uM after 120 mins P33 radiolabeled kinase activity assay.
The target of assay [9] is T2, Serine/threonine-protein kinase TAO2 (Homo sapiens) (UniProt Q9UL54).
T2 sequence (whole entry): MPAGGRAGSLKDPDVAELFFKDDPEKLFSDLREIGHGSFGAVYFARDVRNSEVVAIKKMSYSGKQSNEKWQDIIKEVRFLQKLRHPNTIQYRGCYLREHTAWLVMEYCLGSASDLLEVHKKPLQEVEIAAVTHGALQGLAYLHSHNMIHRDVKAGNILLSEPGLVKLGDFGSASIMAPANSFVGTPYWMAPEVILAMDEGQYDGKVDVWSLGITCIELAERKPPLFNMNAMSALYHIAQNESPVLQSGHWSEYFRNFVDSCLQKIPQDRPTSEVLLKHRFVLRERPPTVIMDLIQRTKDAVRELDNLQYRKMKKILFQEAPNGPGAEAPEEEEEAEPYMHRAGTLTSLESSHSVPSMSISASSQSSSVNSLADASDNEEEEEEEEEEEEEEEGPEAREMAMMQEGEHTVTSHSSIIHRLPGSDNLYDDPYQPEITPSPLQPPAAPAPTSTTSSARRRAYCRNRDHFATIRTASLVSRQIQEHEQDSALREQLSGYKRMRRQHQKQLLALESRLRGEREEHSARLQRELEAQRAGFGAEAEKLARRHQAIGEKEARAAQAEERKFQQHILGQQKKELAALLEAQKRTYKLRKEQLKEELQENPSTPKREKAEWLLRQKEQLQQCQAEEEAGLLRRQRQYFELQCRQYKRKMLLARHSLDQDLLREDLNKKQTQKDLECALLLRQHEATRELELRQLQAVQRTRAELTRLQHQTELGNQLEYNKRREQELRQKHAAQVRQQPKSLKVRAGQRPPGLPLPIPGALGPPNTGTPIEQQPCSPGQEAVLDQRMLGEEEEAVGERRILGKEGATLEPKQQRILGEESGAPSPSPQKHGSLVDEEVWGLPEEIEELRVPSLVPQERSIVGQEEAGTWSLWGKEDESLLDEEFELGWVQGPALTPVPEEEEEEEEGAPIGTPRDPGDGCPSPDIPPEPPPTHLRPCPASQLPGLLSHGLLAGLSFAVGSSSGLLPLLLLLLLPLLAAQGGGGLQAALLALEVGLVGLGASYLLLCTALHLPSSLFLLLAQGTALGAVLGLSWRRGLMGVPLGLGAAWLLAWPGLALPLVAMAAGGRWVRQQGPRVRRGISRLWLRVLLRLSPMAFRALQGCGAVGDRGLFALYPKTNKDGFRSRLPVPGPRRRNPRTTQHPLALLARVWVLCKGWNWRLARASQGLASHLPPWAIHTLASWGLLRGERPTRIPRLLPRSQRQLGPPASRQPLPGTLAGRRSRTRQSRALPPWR
Kind of assay: Inhibition of TAOK2 (unknown origin) at 10 uM after 120 mins P33 radiolabeled kinase activity assay.

Assay [10] addresses Mitogen-activated protein kinase kinase kinase kinase 4 (Homo sapiens) (UniProt O95819). Kind of assay: Inhibition of HGK (unknown origin) at 10 uM after 120 mins P33 radiolabeled kinase activity assay.
Assay [11] addresses T3, Phosphorylase b kinase gamma catalytic chain, liver/testis isoform (Homo sapiens) (UniProt P15735).
T3 sequence (whole entry): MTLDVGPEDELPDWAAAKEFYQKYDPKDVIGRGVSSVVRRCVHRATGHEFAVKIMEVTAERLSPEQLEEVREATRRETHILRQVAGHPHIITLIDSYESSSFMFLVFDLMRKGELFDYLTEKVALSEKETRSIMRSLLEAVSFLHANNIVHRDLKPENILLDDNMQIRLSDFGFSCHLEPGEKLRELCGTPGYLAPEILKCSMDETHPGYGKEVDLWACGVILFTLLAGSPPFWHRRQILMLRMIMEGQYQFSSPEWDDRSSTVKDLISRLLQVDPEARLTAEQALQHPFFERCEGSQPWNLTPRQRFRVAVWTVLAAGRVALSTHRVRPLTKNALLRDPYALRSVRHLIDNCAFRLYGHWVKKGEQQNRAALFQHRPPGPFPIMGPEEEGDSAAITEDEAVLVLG
Nature of the assay: Inhibition of PHKg2 (unknown origin) at 10 uM after 120 mins P33 radiolabeled kinase activity assay.

Assay [12] concerns the target Dual specificity tyrosine-phosphorylation-regulated kinase 1B (Homo sapiens) (UniProt Q9Y463). Nature of the assay: Inhibition of DYRK1B (unknown origin) at 10 uM after 120 mins P33 radiolabeled kinase activity assay.

Chain of Mitogen-activated protein kinase 8 (Homo sapiens) (P45983 whole entry): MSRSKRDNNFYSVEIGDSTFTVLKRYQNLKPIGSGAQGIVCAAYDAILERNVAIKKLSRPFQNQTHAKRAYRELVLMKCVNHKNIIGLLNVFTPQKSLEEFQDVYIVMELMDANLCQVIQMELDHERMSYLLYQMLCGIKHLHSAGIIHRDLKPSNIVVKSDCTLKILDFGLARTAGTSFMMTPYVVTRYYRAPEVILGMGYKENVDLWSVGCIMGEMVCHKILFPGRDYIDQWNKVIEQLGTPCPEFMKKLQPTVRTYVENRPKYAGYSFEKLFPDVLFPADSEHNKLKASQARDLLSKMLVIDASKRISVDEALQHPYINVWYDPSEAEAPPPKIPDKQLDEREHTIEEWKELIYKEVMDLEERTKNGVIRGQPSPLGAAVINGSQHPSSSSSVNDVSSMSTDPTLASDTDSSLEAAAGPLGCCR
Chain of Insulin-like growth factor 1 receptor (Homo sapiens) (P08069 31-736 limits assumed): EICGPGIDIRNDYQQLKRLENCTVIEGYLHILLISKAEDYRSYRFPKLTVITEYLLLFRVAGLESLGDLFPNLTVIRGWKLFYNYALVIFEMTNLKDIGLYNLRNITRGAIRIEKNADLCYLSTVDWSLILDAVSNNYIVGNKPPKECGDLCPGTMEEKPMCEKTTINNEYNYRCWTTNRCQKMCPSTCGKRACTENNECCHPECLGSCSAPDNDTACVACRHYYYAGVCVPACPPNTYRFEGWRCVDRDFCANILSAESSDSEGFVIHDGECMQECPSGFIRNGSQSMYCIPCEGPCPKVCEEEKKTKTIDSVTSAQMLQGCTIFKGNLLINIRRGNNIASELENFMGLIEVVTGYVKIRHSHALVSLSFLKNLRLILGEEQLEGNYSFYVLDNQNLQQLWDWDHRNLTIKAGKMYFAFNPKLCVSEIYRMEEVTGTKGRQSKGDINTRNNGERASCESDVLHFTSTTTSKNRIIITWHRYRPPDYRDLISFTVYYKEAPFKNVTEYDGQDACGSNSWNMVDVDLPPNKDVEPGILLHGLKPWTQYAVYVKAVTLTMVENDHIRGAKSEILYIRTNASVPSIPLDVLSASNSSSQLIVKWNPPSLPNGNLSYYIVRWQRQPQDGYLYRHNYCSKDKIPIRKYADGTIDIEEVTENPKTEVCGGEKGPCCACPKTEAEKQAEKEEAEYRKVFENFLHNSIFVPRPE
Chain of Insulin-like growth factor 1 receptor (Homo sapiens) (P08069 741-1367 limits assumed): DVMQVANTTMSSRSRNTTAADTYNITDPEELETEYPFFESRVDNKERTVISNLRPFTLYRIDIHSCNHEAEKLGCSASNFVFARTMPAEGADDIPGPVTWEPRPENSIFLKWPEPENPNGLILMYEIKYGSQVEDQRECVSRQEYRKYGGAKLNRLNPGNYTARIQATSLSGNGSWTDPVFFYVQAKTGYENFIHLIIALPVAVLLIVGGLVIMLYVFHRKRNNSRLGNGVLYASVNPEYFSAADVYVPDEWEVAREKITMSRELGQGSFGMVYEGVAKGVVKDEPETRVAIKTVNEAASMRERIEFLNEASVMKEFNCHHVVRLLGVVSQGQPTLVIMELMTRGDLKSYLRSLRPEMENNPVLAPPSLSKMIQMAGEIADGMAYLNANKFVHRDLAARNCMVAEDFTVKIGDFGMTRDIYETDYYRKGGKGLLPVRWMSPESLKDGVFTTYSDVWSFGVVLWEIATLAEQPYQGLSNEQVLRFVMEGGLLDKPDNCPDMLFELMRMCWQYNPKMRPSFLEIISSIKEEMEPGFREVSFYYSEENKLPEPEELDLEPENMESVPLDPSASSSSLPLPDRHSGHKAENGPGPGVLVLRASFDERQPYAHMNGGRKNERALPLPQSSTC
Chain of Dual specificity tyrosine-phosphorylation-regulated kinase 1B (Homo sapiens) (Q9Y463 whole entry, looked up): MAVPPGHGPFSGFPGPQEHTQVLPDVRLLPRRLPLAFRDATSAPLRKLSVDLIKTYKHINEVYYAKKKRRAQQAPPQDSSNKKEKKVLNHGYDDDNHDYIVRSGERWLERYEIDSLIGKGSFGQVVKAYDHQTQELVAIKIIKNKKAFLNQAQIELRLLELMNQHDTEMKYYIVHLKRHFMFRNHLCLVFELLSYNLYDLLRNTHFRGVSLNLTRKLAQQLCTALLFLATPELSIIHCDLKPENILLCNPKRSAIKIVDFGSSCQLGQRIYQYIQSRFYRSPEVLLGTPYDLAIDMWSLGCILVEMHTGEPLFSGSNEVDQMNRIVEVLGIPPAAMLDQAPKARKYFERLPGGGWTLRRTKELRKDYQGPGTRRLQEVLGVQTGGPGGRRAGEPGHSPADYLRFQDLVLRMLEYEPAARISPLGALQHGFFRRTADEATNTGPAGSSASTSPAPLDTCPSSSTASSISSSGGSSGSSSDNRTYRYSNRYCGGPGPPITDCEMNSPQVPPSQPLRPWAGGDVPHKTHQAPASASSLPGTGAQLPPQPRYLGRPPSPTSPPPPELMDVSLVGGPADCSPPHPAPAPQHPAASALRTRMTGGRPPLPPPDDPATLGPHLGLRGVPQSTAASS
Chain of Mitogen-activated protein kinase kinase kinase kinase 4 (Homo sapiens) (O95819 2-1239 limits assumed): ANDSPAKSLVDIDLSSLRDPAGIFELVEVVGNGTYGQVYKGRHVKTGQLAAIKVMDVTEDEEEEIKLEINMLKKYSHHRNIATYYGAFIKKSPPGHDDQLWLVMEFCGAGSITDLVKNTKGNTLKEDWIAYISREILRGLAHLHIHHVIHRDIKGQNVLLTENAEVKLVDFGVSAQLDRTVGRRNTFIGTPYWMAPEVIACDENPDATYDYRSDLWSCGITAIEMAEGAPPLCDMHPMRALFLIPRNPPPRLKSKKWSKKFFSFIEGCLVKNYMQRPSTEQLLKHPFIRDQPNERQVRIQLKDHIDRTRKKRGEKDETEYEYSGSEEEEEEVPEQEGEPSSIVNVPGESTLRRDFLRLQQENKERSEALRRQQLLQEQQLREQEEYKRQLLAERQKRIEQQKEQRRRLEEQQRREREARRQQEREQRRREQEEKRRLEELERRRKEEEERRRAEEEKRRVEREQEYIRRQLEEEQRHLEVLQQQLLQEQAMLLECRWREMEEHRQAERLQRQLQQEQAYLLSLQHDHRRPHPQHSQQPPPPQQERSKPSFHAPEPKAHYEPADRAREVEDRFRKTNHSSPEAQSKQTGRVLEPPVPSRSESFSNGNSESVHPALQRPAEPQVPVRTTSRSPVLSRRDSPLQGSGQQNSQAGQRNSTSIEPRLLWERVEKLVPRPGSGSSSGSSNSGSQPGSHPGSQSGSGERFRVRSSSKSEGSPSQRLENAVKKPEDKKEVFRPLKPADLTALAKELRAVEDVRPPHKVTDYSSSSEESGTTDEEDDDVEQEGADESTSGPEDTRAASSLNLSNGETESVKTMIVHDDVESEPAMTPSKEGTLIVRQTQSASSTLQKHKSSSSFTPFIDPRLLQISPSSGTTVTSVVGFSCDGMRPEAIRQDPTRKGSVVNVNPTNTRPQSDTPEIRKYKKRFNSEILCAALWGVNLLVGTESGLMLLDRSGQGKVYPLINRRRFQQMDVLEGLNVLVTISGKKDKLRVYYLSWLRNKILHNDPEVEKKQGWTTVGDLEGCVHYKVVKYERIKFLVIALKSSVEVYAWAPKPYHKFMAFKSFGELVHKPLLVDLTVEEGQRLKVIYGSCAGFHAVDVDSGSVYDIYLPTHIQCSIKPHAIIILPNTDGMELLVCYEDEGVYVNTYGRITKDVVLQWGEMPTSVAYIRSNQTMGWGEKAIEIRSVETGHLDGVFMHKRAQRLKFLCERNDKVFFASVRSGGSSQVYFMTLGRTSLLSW

As to `CS(=O)(=O)c1cccc(Nc2nccc(-c3sc(N4CCOCC4)nc3-c3cccc(NS(=O)(=O)c4c(F)cccc4F)c3)n2)c1`, the inhibition in assay [1] was determined as 28.3%; in assay [2] it was 10.1%; in assay [3], 7.04%; in assay [5] it was 15%; in assay [6] it was 31.4%; in assay [7], 7.17%. The inhibition is 9.14% in [8]; 77.8% in assay [9]; 63.3% in assay [10]; 5.98% in assay [11]; 27.5% in assay [12]. For the same compound, in assay [4], the T1/2 turned out to be 1.32 h.
For the compound `CC(C)(C)c1cc(NC(=O)Nc2ccc(Oc3ccncc3)cc2)no1`, the inhibition was 31.5% in assay [1]; 33% in assay [2]; 3.15% in assay [3]; 11.7% in assay [5]; 14.2% in assay [6]; 22.7% in [7]. The inhibition is 2.82% in [8]; 96.7% in assay [9]; 99.8% in [10]; -3.81% in [11]; 14.5% in assay [12]. In addition, the T1/2 in assay [4] worked out at 1.42 h.
On to `COCCNC(=O)c1ccc2c(c1)nc(-c1cnc(-c3ccc(Cl)cc3)[nH]1)n2CCOC`, for which the inhibition in [1] was 17.9%; in assay [2], 1.49%; in assay [3], -0.09%; in [5], 0.5%; in assay [6], 2.55%; in assay [7], 2%. Moreover, the inhibition in assay [8] turned out to be 2.21%; in [9], 1.71%; in assay [10] it was 57.7%; in assay [11] it was 3.38%; in assay [12] it was 11.4%. Moreover, in [4], the T1/2 is 0.00167 h.

(Values after ChEMBL document CHEMBL3627608, “Crystal structures of human RIP2 kinase catalytic domain complexed with ATP-competitive inhibitors: Foundations for understanding inhibitor selectivity” (Bioorg Med Chem, 2015).)
